Data on four compounds can be found in paper PMC6332448, “SAR Studies Leading to the Identification of a Novel Series of Metallo-β-lactamase Inhibitors for the Treatment of Carbapenem-Resistant Enterobacteriaceae Infections That Display Efficacy in an Animal Infection Model” (ACS Infectious Diseases, 2018).

pIC50, pKi: −log10 of the molar value. Converted amounts (≈) assume the structure as drawn. “And” between values parts separate entries of the source, which are not always exact repeats. Equal entries are not always repeated. Where two headings read alike, the source gives them in different places.

The target of data set [1] is NDM-1 (Klebsiella pneumoniae, UniProt C7C422). The data set can be described thus: biochemical. The following applies: NDM-1 IC50, 300 μM imipenem, 10 mM HEPES pH 7.5, 25 °C; average of at least two independent assays. The data set is classed as biochemical.
NDM-1, sequence (C7C422 29-270, looked up, species assumed): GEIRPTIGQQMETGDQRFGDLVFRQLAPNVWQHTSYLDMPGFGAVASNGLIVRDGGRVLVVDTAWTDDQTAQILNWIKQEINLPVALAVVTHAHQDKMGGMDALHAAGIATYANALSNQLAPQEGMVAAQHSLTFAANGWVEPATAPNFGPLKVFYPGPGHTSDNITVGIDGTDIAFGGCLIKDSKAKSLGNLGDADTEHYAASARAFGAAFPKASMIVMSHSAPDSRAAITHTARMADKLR
The target in data set [2] is IMP-1 (Serratia marcescens, UniProt P52699). The data set can be described thus: biochemical. The data set is classed as biochemical.
IMP-1, sequence (P52699 19-246, looked up, species assumed): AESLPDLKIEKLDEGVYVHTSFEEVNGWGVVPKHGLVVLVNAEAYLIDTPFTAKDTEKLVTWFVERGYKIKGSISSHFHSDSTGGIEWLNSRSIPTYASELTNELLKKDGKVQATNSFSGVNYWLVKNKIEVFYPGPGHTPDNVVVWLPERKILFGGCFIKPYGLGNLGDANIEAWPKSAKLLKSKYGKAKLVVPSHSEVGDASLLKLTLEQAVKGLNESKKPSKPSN
The subject of data set [3] is NDM-1-producing strain Escherichia coli NTBC121. The data set can be described thus: Whole-cell meropenem potentiation, CLSI broth microdilution MIC. The data set is classed as cell-based. The following applies: inhibitor present at 100 μM; E. coli NTBC121 (NDM-1); meropenem alone 32 μg/mL. The method, then:
(§1) Minimal inhibitory concentrations (MIC) were determined using the Clinical Laboratory Standards Institute (CLSI) broth microdilution procedure. MBL-positive Enterobacteriaceae clinical isolates tested in the susceptibility study included NDM-1-producing strain E. coli NTBC121, VIM-1-producing strain K. pneumoniae NTBC055, and IMP-1-producing strain K. pneumoniae NTBC062. (Individual MICs for all strains tested are presented in Table 2 and Table 1 in the Supporting Information).

Data set [4] can be described thus: Kinetic solubility in PBS pH 7.4. The data set is classed as physicochemical. The following applies: for solubility at 4 h: phosphate-buffered saline, pH 7.4, aqueous buffer, thermodynamic from solid. The protocol:
This was determined by vigorous stirring (1200 rpm) of a 20 mg/mL mixture of the test compound in phosphate-buffered saline (PBS) at pH 7.4 for 4 h. The mixture was then centrifuged for 20 min at 10 000 rpm and the supernatant further processed by filtration. The concentration of the test compound in the filtrate was then determined by high-performance liquid chromatography (UV analysis) by comparison to a standard calibration curve of the test compound.

Data set [5] concerns NDM- and VIM-producing clinical strains. Details: method as in PMID 29530861. The following applies: cited from earlier work.
The test system of data set [6] is E. coli (IR3). Details: method as in PMID 29530861. The following applies: E. coli (IR3) murine thigh infection model, in combination with meropenem; cited from earlier work.
The target in data set [7] is VIM-1 (Pseudomonas aeruginosa, UniProt A0A0F7KYQ8). Put plainly: biochemical. The data set is classed as biochemical.
Data set [8] deals with NDM-1-producing Escherichia coli (DH5α/pLBII-NDM-1). Put plainly: Imipenem MIC on laboratory strain. The class given is cell-based. The following applies: tested at concentrations up to 1 mM; data not shown.
For data set [9], the target named is Aeromonas hydrophila CphA MBL. The arrangement: method as in PMID 17307979. Conditions: read-out: Ki [inhibition constant] CphA; cited from earlier work.
Data set [10] concerns the target T1, VIM-2 (Escherichia coli, UniProt Q5U7L7). Put plainly: biochemical.
For data set [11], the system named is VIM-1-producing strain Klebsiella pneumoniae NTBC055. The data set can be described thus: Whole-cell meropenem potentiation, CLSI broth microdilution MIC. The following applies: inhibitor present at 100 μM; K. pneumoniae NTBC055 (VIM-1); meropenem alone 16 μg/mL. The class given is cell-based. The method, then:
as §1

In data set [12] the test system is IMP-1-producing strain K. pneumoniae NTBC062. The description is as above. The data set is classed as cell-based, Klebsiella pneumoniae. The following applies: inhibitor present at 100 μM; K. pneumoniae NTBC062 (IMP-1); meropenem alone 4 μg/mL. The protocol:
as §1

The target in data set [13] is T1, VIM-2. The following applies: tested up to 200 μM.

`O=C(O)c1ncsc1NS(=O)(=O)c1cccnc1` [Compound 76, 5-(Pyridine-3-sulfonamido)-1,3-thiazole-4-carboxylic acid]: the results for the pIC50 in data set [1] and in [2] were 5.57 and 4.27, respectively. For the same compound, the “MICMEM (meropenem MIC in presence of inhibitor) vs NTBC121” value in data set [3] is 0.06 µg/mL. The solubility at 4 h was 2.4 mg/mL (≈ 8.41 mM) in data set [4] (acid form, read-out: solubility) and approximately 20 mg/mL in [4] (sodium salt, read-out: solubility (Na salt)). Also, the “solubility (Na salt)” value in data set [4] (sodium salt) stood at 16.9 mg/mL. For the same compound, in [5] (listed as ANT431), the “effective inhibitor concentration for potentiation of meropenem” value is 28 μM and 8 μg/mL. Further, the “potentiation of meropenem activity, in words” value in data set [5] (panel of 94 randomly selected NDM- and VIM-producing clinical strains) is given as “potentiate meropenem activity”. Further, in [6], the “efficacy with meropenem in thigh infection model, in words” value is “restore the efficacy of meropenem”.

As to `O=C(O)c1ccccn1` [Compound 1, pyridine-2-carboxylic acid, reference compound], the pIC50 is 4.77 in [1], less than 3.70 in data set [7], less than 3.70 in data set [2] and less than 3.70 in data set [10]. Moreover, in data set [7] (tested up to 200 μM), the “inhibition of VIM-1, in words” value is “no significant activity”. Besides, the “inhibition of IMP-1, in words” value in [2] (tested up to 200 μM) is listed as “no significant activity”. In addition, the “reduction of imipenem MIC” value in [8] is listed as “no reduction”. In addition, the pKi in data set [9] was 5.22.

As to `O=C(O)c1ncccc1NS(=O)(=O)c1ccccc1` [Compound 32], the pIC50 in data set [1] was 4.30; in data set [7] it was less than 3.70; in data set [2] it was less than 3.70; in [10], 5.72. Also, the “MICMEM (meropenem MIC in presence of inhibitor) vs NTBC121” value in data set [3] came out at 16 µg/mL. Also, in data set [11], the “MICMEM (meropenem MIC in presence of inhibitor) vs NTBC055” value turned out to be 4 µg/mL. In addition, the “MICMEM (meropenem MIC in presence of inhibitor) vs NTBC062” value in data set [12] is 2 µg/mL. Besides, in data set [13], the “inhibition of VIM-2, in words” value is on record as “strong inhibition”.

As to `O=C(O)c1ncccc1NS(=O)(=O)Cc1cc(Cl)cc(Cl)c1` [Compound 43], the pIC50 in [1] was 4.73; in data set [7], 4.24; in [2], 3.74; in data set [10] it was 6.52. In data set [3], the “MICMEM (meropenem MIC in presence of inhibitor) vs NTBC121” value came to 8 µg/mL. Moreover, the “MICMEM (meropenem MIC in presence of inhibitor) vs NTBC055” value in data set [11] is 1 µg/mL. Further, the “MICMEM (meropenem MIC in presence of inhibitor) vs NTBC062” value in data set [12] turned out to be 1 µg/mL. Besides, in data set [13], the “inhibition of VIM-2, in words” value is “strong inhibition”.
